System: WM3248 melanoma cells, 486 antibodies
Experiment: Reverse phase protein arrays (RPPA);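 on RPPA ACC1.R.C: ratio of treated to vehicle (0 µM) normalized linear protein signal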;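 on RPPA AMPK.a2 pS345.R.V: ratio of treated to vehicle (0 µM) normalized linear protein signal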;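 on RPPA AMPKa pT172.R.C: ratio of treated to vehicle (0 µM) normalized linear protein signal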;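 on RPPA ASNS.R.V: ratio of treated to vehicle (0 µM) normalized linear protein signal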;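 on RPPA AceCS1.R.V: ratio of treated to vehicle (0 µM) normalized linear protein signal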;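 on RPPA Akt1.R.V: ratio of treated to vehicle (0 µM) normalized linear protein signal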;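 on RPPA Atg5.R.C: ratio of treated to vehicle (0 µM) normalized linear protein signal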;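 on RPPA Bim.R.V: ratio of treated to vehicle (0 µM) normalized linear protein signal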
Format: cell-based, Human
Details: 20 uM
Description: Pellets were snap frozen in liquid nitrogen and shipped to MD Anderson Cancer Center core RPPA facility for RPPA analysis (Table S5). Three biological replicates for each sample were generated.
Nomenclatures on the RPPA heatmaps: name_of_antibody.species_of_antibody.status_of_antibody. V - antibody validated; C - validation of antibody in progress; Q - antibody nonspecific; E – under evaluation; antibodies raised in M - mouse, G - goat, R - rabbit, or T - rat.

CN(C)c1cccc(Nc2cc(-c3ccccc3)nc(C3CCNCC3)n2)c1 [ARN22089, N1,N1-dimethyl-N3-(6-phenyl-2-(piperidin-4-yl)pyrimidin-4-yl)benzene-1,3-diamine]
RPPA p38.a.M.V Average: 0.905
RPPA p44.42.MAPK.R.V Average: 1.030
RPPA p53.R.C Average: 1.157
RPPA p70.S6K1.R.V Average: 1.027
RPPA p70.S6K_pT389.R.V Average: 0.996
RPPA p90RSK_pT573.R.C Average: 1.014
RPPA A.Raf.R.V (20W1): 1.011
RPPA ACC1.R.C (20W1): 0.890
RPPA ACLY_pS455.R.V (20W1): 1.224
RPPA ACSL1.R.V (20W1): 0.955
RPPA ACVRL1.R.C (20W1): 0.972
RPPA ADAR1.M.V (20W1): 1.307
RPPA ALKBH5.R.V (20W1): 0.885
RPPA AMPK.a2_pS345.R.V (20W1): 1.081
RPPA AMPKa.R.C (20W1): 1.032
RPPA AMPKa_pT172.R.C (20W1): 3.755
RPPA AR.R.V (20W1): 0.874
RPPA ARID1A.R.C (20W1): 1.514
RPPA ASNS.R.V (20W1): 0.742
RPPA ATM.R.V (20W1): 1.024
RPPA ATM_pS1981.R.V (20W1): 1.111
RPPA ATP5A.M.C (20W1): 1.018
RPPA ATP5H.R.V (20W1): 1.117
RPPA ATR.R.V (20W1): 1.005
RPPA ATRX.R.C (20W1): 1.357
RPPA ATR_pS428.R.C (20W1): 1.054
RPPA AceCS1.R.V (20W1): 0.907
RPPA Akt1.R.V (20W1): 0.811
RPPA Akt1_pS473.R.V (20W1): 1.162
RPPA Akt2.R.V (20W1): 0.873
RPPA Akt.R.V (20W1): 0.913
RPPA Akt_pS473.R.V (20W1): 0.795
RPPA Akt_pT308.R.V (20W1): 0.845
RPPA Ambra1_pS52.R.C (20W1): 1.101
RPPA Annexin.I.M.V (20W1): 0.972
RPPA Atg3.R.V (20W1): 0.914
RPPA Atg4B.R.C (20W1): 0.881
RPPA Atg5.R.C (20W1): 0.779
RPPA Atg7.R.V (20W1): 0.813
RPPA Aurora.A.R.C (20W1): 0.656
RPPA Aurora.ABC_pT288_pT232_pT198.R.C (20W1): 0.959
RPPA Aurora.B.R.V (20W1): 1.341
RPPA Axl.R.V (20W1): 0.908
RPPA B7.H3.R.C (20W1): 0.771
RPPA B7.H4.R.C (20W1): 1.034
RPPA B.Raf.R.C (20W1): 0.907
RPPA B.Raf_pS445.R.V (20W1): 0.934
RPPA BAP1.M.V (20W1): 0.877
RPPA BCL2A1.R.V (20W1): 0.987
RPPA BMK1.Erk5_pT218_Y220.R.V (20W1): 0.909
RPPA BRCA1.M.C (20W1): 1.231
RPPA BRD4.R.V (20W1): 1.228
RPPA Bad_pS112.R.V (20W1): 1.119
RPPA Bak.R.C (20W1): 1.000
RPPA Bax.R.V (20W1): 0.927
RPPA Bcl2.R.C (20W1): 1.064
RPPA Bcl.xL.R.V (20W1): 1.008
RPPA Beclin.R.C (20W1): 0.873
RPPA BiP.GRP78.M.C (20W1): 0.914
RPPA Bid.R.C (20W1): 0.954
RPPA Bim.R.V (20W1): 1.054
RPPA X4E.BP1.R.V (20W1): 1.323
RPPA X4E.BP1_pS65.R.V (20W1): 0.718
RPPA X4E.BP1_pT37_T46.R.V (20W1): 0.651
RPPA X14.3.3.zeta.R.V (20W1): 0.801
RPPA X14.3.3βR.V (20W1): 1.140
RPPA X14.3.3εM.C (20W1): 0.864
RPPA b.Actin.R.C (20W1): 1.078
RPPA b.Catenin.R.V (20W1): 0.844
RPPA b.Catenin_pT41_S45.R.V (20W1): 1.120
RPPA c.Abl.R.V (20W1): 1.161
RPPA c.IAP2.R.C (20W1): 1.080
RPPA A.Raf.R.V (20W3): 0.992
RPPA A.Raf_pS299.R.C (20W3): 0.987
RPPA ACC1.R.C (20W3): 0.779
RPPA ACC_pS79.R.V (20W3): 0.983
RPPA ACLY_pS455.R.V (20W3): 0.970
RPPA ACSL1.R.V (20W3): 0.853
RPPA ACVRL1.R.C (20W3): 0.984
RPPA ALKBH5.R.V (20W3): 0.991
RPPA AMPK.a2_pS345.R.V (20W3): 1.134
RPPA AMPKa.R.C (20W3): 1.122
RPPA AMPKa_pT172.R.C (20W3): 2.117
RPPA AR.R.V (20W3): 1.261
RPPA ARID1A.R.C (20W3): 1.115
RPPA ASNS.R.V (20W3): 1.296
RPPA ATM.R.V (20W3): 0.991
RPPA ATM_pS1981.R.V (20W3): 0.989
RPPA ATP5A.M.C (20W3): 0.955
RPPA ATP5H.R.V (20W3): 0.967
RPPA ATR.R.V (20W3): 0.989
RPPA ATR_pS428.R.C (20W3): 1.254
RPPA AceCS1.R.V (20W3): 0.994
RPPA Akt1.R.V (20W3): 1.129
RPPA Akt1_pS473.R.V (20W3): 1.135
RPPA Akt2.R.V (20W3): 1.035
RPPA Akt2_pS474.R.C (20W3): 1.166
RPPA Akt.R.V (20W3): 0.976
RPPA Akt_pS473.R.V (20W3): 1.265
RPPA Ambra1_pS52.R.C (20W3): 0.996
RPPA Annexin.I.M.V (20W3): 0.990
RPPA Annexin.VII.M.V (20W3): 0.885
RPPA Atg3.R.V (20W3): 1.076
RPPA Atg4B.R.C (20W3): 1.076
RPPA Atg5.R.C (20W3): 0.960
RPPA Aurora.A.R.C (20W3): 0.983
RPPA Aurora.ABC_pT288_pT232_pT198.R.C (20W3): 1.060
RPPA Axl.R.V (20W3): 1.478
RPPA B7.H3.R.C (20W3): 1.058
RPPA B7.H4.R.C (20W3): 1.107
RPPA B.Raf_pS445.R.V (20W3): 1.167
RPPA BAP1.M.V (20W3): 0.964
RPPA BMK1.Erk5_pT218_Y220.R.V (20W3): 0.926
RPPA BRCA1.M.C (20W3): 0.977
RPPA BRD4.R.V (20W3): 1.002
RPPA Bad_pS112.R.V (20W3): 1.163
RPPA Bax.R.V (20W3): 1.054
RPPA Bcl2.R.C (20W3): 0.975
RPPA Bcl.xL.R.V (20W3): 1.190
RPPA Beclin.R.C (20W3): 0.948
RPPA BiP.GRP78.M.C (20W3): 1.003
RPPA Bid.R.C (20W3): 0.943
RPPA Bim.R.V (20W3): 0.917
RPPA X4E.BP1.R.V (20W3): 1.550
RPPA X4E.BP1_pS65.R.V (20W3): 1.024
RPPA X4E.BP1_pT37_T46.R.V (20W3): 1.034
RPPA X14.3.3βR.V (20W3): 0.902
RPPA X14.3.3εM.C (20W3): 0.973
RPPA b.Actin.R.C (20W3): 0.977
RPPA b.Catenin.R.V (20W3): 1.021
RPPA b.Catenin_pT41_S45.R.V (20W3): 1.082
RPPA c.Abl.R.V (20W3): 1.234
RPPA c.Abl_pY412.R.C (20W3): 1.114
C.Raf.R.C RPPA level (Average): 1.061
CA9.R.C RPPA level (Average): 0.925
CD2.M.C RPPA level (Average): 0.936
CD4.R.V RPPA level (Average): 1.006
CD5.M.C RPPA level (Average): 0.966
CD20.R.C RPPA level (Average): 1.099
CD31.M.V RPPA level (Average): 0.988
CD38.R.C RPPA level (Average): 1.131
CD44.R.C RPPA level (Average): 0.982
CD45.M.V RPPA level (Average): 0.957
CD49b.M.V RPPA level (Average): 0.989
CD68.M.C RPPA level (Average): 0.999
CD74.M.V RPPA level (Average): 0.998
CD134.R.V RPPA level (Average): 0.994
CD171.M.V RPPA level (Average): 0.762
CDK1_pT14.R.C RPPA level (Average): 1.056
CDK9.R.V RPPA level (Average): 0.964
CDKN2A.R.C RPPA level (Average): 1.024
CDT1.R.V RPPA level (Average): 0.971
CENP.A.R.V RPPA level (Average): 1.548
CHD1L.R.V RPPA level (Average): 0.954
CIITA.R.C RPPA level (Average): 1.002
COG3.R.V RPPA level (Average): 1.098
CRABP1.R.C RPPA level (Average): 1.025
CRABP2.R.V RPPA level (Average): 0.977
CREB_pS133.R.C RPPA level (Average): 1.270
CSK.R.C RPPA level (Average): 0.987
Calnexin.R.V RPPA level (Average): 0.956
Caspase.7.cleaved..R.C RPPA level (Average): 0.982
Caspase.8.M.Q RPPA level (Average): 0.929

From article PMC9127750, “Structure-based design of CDC42 effector interaction inhibitors for the treatment of cancer” (Cell reports, 2022)
